Molecules are shown by their SMILES. A value given as a limit tells only on which side of the number the result lay.

The target in the assay is human Bruton's Tyrosine Kinase (Btk) (Homo sapiens (Human), UniProt Q06187). Nature of the assay: Recombinant Human Bruton's Tyrosine Kinase (Btk) Inhibition Assay (HTRF KinEASE-TK). Particulars: 20 ng/ml rhBtk, 77 μM ATP (KM), 1 μM TK-Biotin substrate, 90 min; read-out: hBTK IC50. It is filed as biochemical.
Chain of human Bruton's Tyrosine Kinase (Btk) (Q06187 whole entry): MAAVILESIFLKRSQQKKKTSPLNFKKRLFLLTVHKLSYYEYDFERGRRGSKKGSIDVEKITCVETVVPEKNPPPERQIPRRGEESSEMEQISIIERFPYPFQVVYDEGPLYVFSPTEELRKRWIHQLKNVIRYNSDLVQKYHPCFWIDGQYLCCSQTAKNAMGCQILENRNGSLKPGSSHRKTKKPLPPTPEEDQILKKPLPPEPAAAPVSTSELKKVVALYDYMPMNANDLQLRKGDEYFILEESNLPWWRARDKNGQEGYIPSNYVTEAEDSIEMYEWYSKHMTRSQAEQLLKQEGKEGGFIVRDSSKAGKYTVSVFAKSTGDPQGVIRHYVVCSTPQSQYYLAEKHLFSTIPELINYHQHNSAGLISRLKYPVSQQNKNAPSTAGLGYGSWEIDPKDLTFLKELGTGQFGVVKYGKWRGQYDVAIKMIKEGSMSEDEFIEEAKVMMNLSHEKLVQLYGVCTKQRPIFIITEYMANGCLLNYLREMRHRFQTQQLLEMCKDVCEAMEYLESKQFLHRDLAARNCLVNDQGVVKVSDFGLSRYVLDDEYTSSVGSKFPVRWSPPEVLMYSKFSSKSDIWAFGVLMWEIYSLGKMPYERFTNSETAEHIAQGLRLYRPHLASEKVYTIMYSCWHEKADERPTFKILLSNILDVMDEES
As usually defined, the IC50 is the point on the concentration scale where inhibition reaches its midpoint. Regarding `CCN1CCN(Cc2ccc(-c3cc4c(-c5cccc(N6CCc7cc(C8CC8)ccc7C6=O)c5C)ncnc4[nH]3)cc2)CC1` [Example B-4, 6-cyclopropyl-2-[3-[6-[4-[(4-ethylpiperazin-1-yl)methyl]phenyl]-7H-pyrrolo[2,3-d]pyrimidin-4-yl]-2-methyl-phenyl]-3,4-dihydroisoquinolin-1-one], the IC50 came out at 0.041 µM.

Take `O=C1c2ccc(C3CC3)cc2OCCN1c1cccc(-c2ccnc3[nH]c(-c4cnn(C5CCOCC5)c4)cc23)c1CO` [Example F-2, 8-cyclopropyl-4-[2-(hydroxymethyl)-3-[2-(1-tetrahydropyran-4-ylpyrazol-4-yl)-1H-pyrrolo[2,3-b]pyridin-4-yl]phenyl]-2,3-dihydro-1,4-benzoxazepin-5-one]: the concentration for half-maximal inhibition (IC50) worked out at 0.043 µM.

On to `Cc1c(-c2nc(N)nc3[nH]c(-c4ccc(N5CCOCC5)nc4)cc23)cccc1N1CCOc2cc(C3CC3)ccc2C1=O` [Example N-2, 4-[3-[2-amino-6-(6-morpholino-3-pyridyl)-7H-pyrrolo[2,3-d]pyrimidin-4-yl]-2-methyl-phenyl]-8-cyclopropyl-2,3-dihydro-1,4-benzoxazepin-5-one], for which the IC50 was found to be 0.181 µM.

For `O=C1c2c(F)cc(C3CC3)cc2OCCN1c1cc(F)cc(-c2ccnc3[nH]c(-c4ccc(CN5CCN(C6COC6)CC5)cn4)cc23)c1CO` [Example I-17, 8-cyclopropyl-6-fluoro-4-[5-fluoro-2-(hydroxymethyl)-3-[2-[5-[[4-(oxetan-3-yl)piperazin-1-yl]methyl]-2-pyridyl]-1H-pyrrolo[2,3-b]pyridin-4-yl]phenyl]-2,3-dihydro-1,4-benzoxazepin-5-one], the IC50 was 0.0013 µM.

Regarding `Cc1c(-c2ncnc3[nH]c(-c4ccc(CN5CCC(C)(O)CC5)cc4)cc23)cccc1N1CCc2cc(C3CC3)ccc2C1=O` [Example B-12, 6-cyclopropyl-2-[3-[6-[4-[(4-hydroxy-4-methyl-1-piperidyl)methyl]phenyl]-7H-pyrrolo[2,3-d]pyrimidin-4-yl]-2-rnethyl-phenyl]-3,4-dihydroisoquinolin-1-one], the half-inhibitory concentration (IC50) was found to be 0.115 µM.

Regarding `Cc1c(-c2ccnc3[nH]c(-c4ccc(CN5CCN(C)CC5)cc4)cc23)cccc1N1CCOc2cc(C3CC3)ccc2C1=O` [Example B-15, 8-cyclopropyl-4-[2-methyl-3-[2-[4-[(4-methylpiperazin-1-yl)methyl]phenyl]-1H-pyrrolo[2,3-b]pyridin-4-yl]phenyl]-2,3-dihydro-1,4-benzoxazepin-5-one], the concentration for half-maximal inhibition (IC50) came to 0.103 µM.

Turning to `Cc1c(-c2ncnc3[nH]c(-c4ccc(C(=O)N5CCN(C)CC5)cc4)cc23)cccc1N1CCc2cc(C3CC3)ccc2C1=O` [Example K-21, 6-cyclopropyl-2-[2-methyl-3-[6-[4-(4-methylpiperazine-1-carbonyl)phenyl]-7H-pyrrolo[2,3-d]pyrimidin-4-yl]phenyl]-3,4-dihydroisoquinolin-1-one], the IC50 was more than 1 µM.

Turning to `Cc1c(-c2ncnc3[nH]c(-c4ccc(C(=O)N5CCN(C)CC5)cc4)cc23)cccc1N1CCc2cc(C3CC3)ccc2C1=O` [Example K-18, 6-cyclopropyl-2-[2-methyl-3-[6-[4-(4-methylpiperazine-1-carbonyl)phenyl]-7H-pyrrolo[2,3-d]pyrimidin-4-yl]phenyl]-3,4-dihydroisoquinolin-1-one], the half-maximal inhibitory concentration (IC50) amounted to 0.208 µM.

As for `Cc1c(-c2ncnc3[nH]c(-c4ccc(N5CCOCC5)cc4)cc23)cccc1N1CCOc2cc(C3CC3)ccc2C1=O` [Example M-3, 8-cyclopropyl-4-[2-methyl-3-[6-(4-morpholinophenyl)-7H-pyrrolo[2,3-d]pyrimidin-4-yl]phenyl]-2,3-dihydro-1,4-benzoxazepin-5-one], the half-inhibitory concentration (IC50) is more than 1 µM.

As to `Cc1c(-c2ncnc3[nH]c(-c4ccc(C(=O)N5CCCC5)cc4)cc23)cccc1N1CCOc2cc(C3CC3)ccc2C1=O` [Example K-9, 8-cyclopropyl-4-[2-methyl-3-[6-[4-(pyrrolidine-1-carbonyl)phenyl]-7H-pyrrolo[2,3-d]pyrimidin-4-yl]phenyl]-2,3-dihydro-1,4-benzoxazepin-5-one], the IC50 turned out to be 0.137 µM.

In the case of `Cc1c(-c2ncnc3[nH]c(-c4cccc(CN5CCOCC5)c4)cc23)cccc1N1CCOc2cc(C3CC3)ccc2C1=O` [Example A-7, 8-cyclopropyl-4-[2-methyl-3-[6-[3-(morpholinomethyl)phenyl]-7H-pyrrolo[2,3-d]pyrimidin-4-yl]phenyl]-2,3-dihydro-1,4-benzoxazepin-5-one], the half-inhibitory concentration (IC50) is 0.415 µM.

Turning to `Cc1c(-c2ncnc3[nH]c(-c4ccc(CN5CCOCC5)cc4)cc23)cccc1N1CCc2cc(C3CC3)ccc2C1=O` [Example A-6, 6-cyclopropyl-2-[2-methyl-3-[6-[4-(morpholinomethyl)phenyl]-7H-pyrrolo[2,3-d]pyrimidin-4-yl]phenyl]-3,4-dihydroisoquinolin-1-one], the half-maximal inhibitory concentration (IC50) stood at 0.143 µM.

As to `Cc1c(-c2ncnc3[nH]c(-c4ccc(CN5CCOCC5)cc4)cc23)cccc1N1CCOc2cc(C3CC3)ccc2C1=O` [Example A-5, 8-cyclopropyl-4-[2-methyl-3-[6-[4-(morpholinomethyl)phenyl]-7H-pyrrolo[2,3-d]pyrimidin-4-yl]phenyl]-2,3-dihydro-1,4-benzoxazepin-5-one], the half-maximal inhibitory concentration (IC50) came out at 0.092 µM.

For the compound `Cc1c(-c2ncnc3[nH]c(-c4ccc(C(=O)N5CCC(C(=O)O)CC5)cc4)cc23)cccc1N1CCOc2cc(C3CC3)ccc2C1=O` [Example K-14, 1-[4-[4-[3-(8-cyclopropyl-5-oxo-2,3-dihydro-1,4-benzoxazepin-4-yl)-2-methyl-phenyl]-7H-pyrrolo[2,3-d]pyrimidin-6-yl]benzoyl]piperidine-4-carboxylic acid], the IC50 was more than 1 µM.

For `CN1CC=C(c2ccc(-c3cc4c(-c5cccc(N6CCOc7cc(C8CC8)ccc7C6=O)c5CO)ccnc4[nH]3)cc2)CC1` [Example C-4, 8-cyclopropyl-4-[2-(hydroxymethyl)-3-[2-[4-(1-methyl-3,6-dihydro-2H-pyridin-4-yl)phenyl]-1H-pyrrolo[2,3-b]pyridin-4-yl]phenyl]-2,3-dihydro-1,4-benzoxazepin-5-one], the IC50 came to 0.011 µM.

Take `Cc1c(-c2ncnc3[nH]c(-c4ccc(C(=O)N5CCCC(O)C5)cc4)cc23)cccc1N1CCOc2cc(C3CC3)ccc2C1=O` (stereo not shown) [Example K-3, 8-cyclopropyl-4-[3-[6-[4-(3-hydroxypiperidine-1-carbonyl)phenyl]-7H-pyrrolo[2,3-d]pyrimidin-4-yl]-2-methyl-phenyl]-2,3-dihydro-1,4-benzoxazepin-5-one]: the 50% inhibitory concentration (IC50) stood at 0.042 µM.

Take `Cc1c(-c2ncnc3[nH]c(-c4ccc(C(=O)N5CC(O)C5)cc4)cc23)cccc1N1CCc2cc(C3CC3)ccc2C1=O` [Example K-17, 6-cyclopropyl-2-[3-[6-[4-(3-hydroxyazetidine-1-carbonyl)phenyl]-7H-pyrrolo[2,3-d]pyrimidin-4-yl]-2-methyl-phenyl]-3,4-dihydroisoquinolin-1-one]: the IC50 was found to be 0.041 µM.

Regarding `COC1CN(C(=O)c2ccc(-c3cc4c(-c5cccc(N6CCOc7cc(C8CC8)ccc7C6=O)c5C)ncnc4[nH]3)cc2)C1` [Example K-11, 8-cyclopropyl-4-[3-[6-[4-(3-methoxyazetidine-1-carbonyl)phenyl]-7H-pyrrolo[2,3-d]pyrimidin-4-yl]-2-methyl-phenyl]-2,3-dihydro-1,4-benzoxazepin-5-one], the half-inhibitory concentration (IC50) was determined as 0.162 µM.

On to `CCN1CCN(Cc2ccc(-c3cc4c(-c5cccc(N6CCOc7cc(C8CC8)ccc7C6=O)c5CO)ccnc4[nH]3)cn2)CC1` [Example B-21, 8-cyclopropyl-4-[3-[2-[6-[(4-ethylpiperazin-1-yl)methyl]-3-pyridyl]-1H-pyrrolo[2,3-b]pyridin-4-yl]-2-(hydroxymethyl)phenyl]-2,3-dihydro-1,4-benzoxazepin-5-one], for which the IC50 stood at 0.008 µM.

Consider `O=C(N1CC=C(c2cc3c(-c4cccc(N5CCOc6cc(C7CC7)cc(F)c6C5=O)c4CO)ccnc3[nH]2)CC1)N1CCC1` [Example P-13, 4-[3-[2-[1-(azetidine-1-carbonyl)-3,6-dihydro-2H-pyridin-4-yl]-1H-pyrrolo[2,3-b]pyridin-4-yl]-2-(hydroxymethyl)phenyl]-8-cyclopropyl-6-fluoro-2,3-dihydro-1,4-benzoxazepin-5-one], for which the concentration for half-maximal inhibition (IC50) stood at 0.001 µM.

As for `O=C1c2c(F)cc(C3CC3)cc2OCCN1c1cccc(-c2ccnc3[nH]c(-c4ccc(OCCN5CCC5)cn4)cc23)c1CO` [Example Q-2, 4-[3-[2-[5-[2-(azetidin-1-yl)ethoxy]-2-pyridyl]-1H-pyrrolo[2,3-b]pyridin-4-yl]-2-(hydroxymethyl)phenyl]-8-cyclopropyl-6-fluoro-2,3-dihydro-1,4-benzoxazepin-5-one], the half-inhibitory concentration (IC50) was 0.0031 µM.

On to `Cc1c(-c2ncnc3[nH]c(C4CCN(CCCO)CC4)cc23)cccc1N1CCOc2cc(C3CC3)ccc2C1=O` [Example P-3, 8-cyclopropyl-4-[3-[6-[1-(3-hydroxypropyl)-4-piperidyl]-7H-pyrrolo[2,3-d]pyrimidin-4-yl]-2-methyl-phenyl]-2,3-dihydro-1,4-benzoxazepin-5-one], for which the concentration for half-maximal inhibition (IC50) was more than 1 µM.

With `Cc1c(-c2ncnc3[nH]c(-c4ccc(C(=O)N5CC(O)C5)cc4)cc23)cccc1N1CCOc2cc(C3CC3)ccc2C1=O` [Example K-8, 8-cyclopropyl-4-[3-[6-[4-(3-hydroxyazetidine-1-carbonyl)phenyl]-7H-pyrrolo[2,3-d]pyrimidin-4-yl]-2-methyl-phenyl]-2,3-dihydro-1,4-benzoxazepin-5-one], the IC50 worked out at 0.36 µM.

Consider `CN(C)C(=O)N1CCN(Cc2ccc(-c3cc4c(-c5cccc(N6CCOc7cc(C8CC8)ccc7C6=O)c5CO)ccnc4[nH]3)nc2)CC1` [Example I-11, 4-[[6-[4-[3-(8-cyclopropyl-5-oxo-2,3-dihydro-1,4-benzoxazepin-4-yl)-2-(hydroxymethyl)phenyl]-1H-pyrrolo[2,3-b]pyridin-2-yl]-3-pyridyl]methyl]-N,N-dimethyl-piperazine-1-carboxamide], for which the IC50 was more than 1 µM.

For the compound `CS(=O)(=O)N1CC=C(c2cc3c(-c4cccc(N5CCOc6cc(C7CC7)cc(F)c6C5=O)c4CO)ccnc3[nH]2)CC1` [Example P-11, 8-cyclopropyl-6-fluoro-4-[2-(hydroxymethyl)-3-[2-(1-methylsulfonyl-3,6-dihydro-2H-pyridin-4-yl)-1H-pyrrolo[2,3-b]pyridin-4-yl]phenyl]-2,3-dihydro-1,4-benzoxazepin-5-one], the IC50 came out at 0.01 µM.

For the origin of these results see US9233983B2, “Substituted hetero-bicyclic compounds, compositions and medicinal applications thereof” (ADVINUS THERAPEUTICS LIMITED, priority 2012, dated 2016).
